Assay results from PubChem BioAssay (NCI).
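Protocol summary: plate cells (96-well), add compound at 5 concentrations, incubate 48 h, interpolate endpoints linearly. At the GI50, growth is halved. TGI is the concentration that stops growth completely.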

Experiments:
Experiment in all cases: growth of human tumour cells (NCI), 48 h
K-562 leukemia = system: K-562 leukemia
RXF 393 renal = system: RXF 393 renal
UO-31 renal = system: UO-31 renal
DU-145 prostate = system: DU-145 prostate
SR leukemia = system: SR leukemia
OVCAR-3 ovarian = system: OVCAR-3 ovarian
SK-MEL-2 melanoma = system: SK-MEL-2 melanoma
OVCAR-8 ovarian = system: OVCAR-8 ovarian
CAKI-1 renal = system: CAKI-1 renal
HOP-92 NSCLC = system: HOP-92 NSCLC

SMILES | GI50 (K-562 leukemia) [µM] | TGI (K-562 leukemia) [µM] | GI50 (RXF 393 renal) [µM] | TGI (RXF 393 renal) [µM] | GI50 (UO-31 renal) [µM] | TGI (UO-31 renal) [µM] | GI50 (DU-145 prostate) [µM] | TGI (DU-145 prostate) [µM] | GI50 (SR leukemia) [µM] | TGI (SR leukemia) [µM] | GI50 (OVCAR-3 ovarian) [µM] | TGI (OVCAR-3 ovarian) [µM] | GI50 (SK-MEL-2 melanoma) [µM] | TGI (SK-MEL-2 melanoma) [µM] | GI50 (OVCAR-8 ovarian) [µM] | TGI (OVCAR-8 ovarian) [µM] | GI50 (CAKI-1 renal) [µM] | TGI (CAKI-1 renal) [µM] | GI50 (HOP-92 NSCLC) [µM] | TGI (HOP-92 NSCLC) [µM]
O=S(=O)(Nc1ccc(Br)cc1)c1ccc(-c2cnc(C3CC3)o2)cc1 | 0.41 | > 100 | 1.61 | 7.6 | 2.41 | 15.7 | 3.8 | 17.4 | 0.349 | 16.5 | 1.05 | 3.96 | 4.2 | 20.3 | 4.16 | 20.4 | 1.07 | 15.1 | 3.39 | 18.6
CCN1C(=O)N(CC)C2C1NN=c1s/c(=C\c3ccc(Cl)cc3Cl)c(=O)n12 (stereo not drawn) | 0.0309 | 28 | 0.0327 | 14.7 | 0.167 | 60.4 | 0.0332 | 1.38 | 0.0319 | > 24.8 | 0.0263 | 0.0665 | 0.0592 | > 60 | 0.0368 | 36.6 | 0.0396 | 25.7 | 0.275 | 64
C[C@@H](NC(C#N)c1ccco1)c1ccccc1 (stereo partly drawn) |  | > 100 |  | > 100 |  | > 100 |  | > 100 |  | > 100 |  | > 100 |  |  |  | > 100 |  |  |  | > 100
c1ccc(-c2nc(-c3ccccn3)nc(-c3ccccn3)n2)nc1 | 19.4 | > 100 | > 100 | > 100 | 3.18 | > 100 | 48.9 | > 100 | 37.9 | > 100 | 25.4 | > 100 | 63.3 | > 100 | 21.3 | > 100 | 3.88 | 34.3 | 8.99 | 92
N#C[Se]Cc1cc(-c2ccccc2)n(-c2ccc(S(N)(=O)=O)cc2)n1 | 1.15 | 9.88 | 0.542 | 1.92 | 1.49 | 5.96 | 0.735 | 2 | 1.37 | 6.13 | 1.18 | 2.98 | 2.32 | 5.6 | 1.35 | > 23.2 | 2.07 | 5.24 | 2.1 | 4.61
Cc1ccc2cnc(N)c(C#Cc3cc(C(=O)Nc4ccc(CN5CCN(C)CC5)c(C(F)(F)F)c4)cnc3C)c2c1 | 0.005 | 1.26 | 0.676 | 1.35 | 0.621 | 1.3 | 0.531 | 1.14 | 0.39 | 1.61 | 0.67 | 2.66 | 0.761 | 1.73 | 1.11 | 3.85 | 0.476 | 1.1 | 0.217 | 1.64
